In ChEMBL document CHEMBL4130394, “Novel 6-substituted benzoyl and non-benzoyl straight chain pyrrolo[2,3-d]pyrimidines as potential antitumor agents with multitargeted inhibition of TS, GARFTase and AICARFTase” (Eur J Med Chem, 2017):
The source made the active and inactive calls. The rule behind the calls is not given here.

Assays:
[1] = molecular target: T1, Thymidylate synthase/GAR transformylase/AICAR transformylase (Homo sapiens, UniProt P04818+P31939+P22102); test: Inhibition of TS/AICARFTase/GARFTase in human KB cells assessed as reduction in cell proliferation in folate free medium after 72 hrs in presence of leucovorin by MTT assay; format: cell-based
[2] = system: SW-620; test: Antiproliferative activity against human SW620 cells in folate free medium after 72 hrs in presence of leucovorin by MTT assay; format: functional, cell-based; settings: SW-620, 72 h
[3] = system: MCF7; test: Antiproliferative activity against human MCF7 cells in folate free medium after 72 hrs in presence of leucovorin by MTT assay; format: functional, cell-based; settings: MCF7, 72 h
[4] = molecular target: Thymidylate synthase (Homo sapiens) (UniProt P04818); test: Inhibition of thymidylate synthase in human KB cells assessed as reduction in cell proliferation up to 1 uM after 72 hrs in presence of excess of thymidine by MTT assay; format: cell-based
[5] = molecular target: GAR transformylase/AICAR transformylase (Homo sapiens) (UniProt P31939+P22102); test: Inhibition of AICARFTase/GARFTase in human KB cells assessed as reduction in cell proliferation up to 1 uM after 72 hrs in presence of excess of adenosine by MTT assay; format: cell-based
[6] = molecular target: T1, Thymidylate synthase/GAR transformylase/AICAR transformylase; test: Inhibition of TS/AICARFTase/GARFTase in human KB cells assessed as reduction in cell proliferation up to 1 uM after 72 hrs in presence of excess of thymidine and adenosine by MTT assay; format: cell-based
[7] = molecular target: T2, Bifunctional purine biosynthesis protein ATIC (Homo sapiens, UniProt P31939); test: Inhibition of AICARFTase in human KB cells assessed as reduction in cell proliferation up to 1 uM after 72 hrs in presence of excess of AICA by MTT assay; format: cell-based
Target sequence in this assay (P31939 whole entry, looked up): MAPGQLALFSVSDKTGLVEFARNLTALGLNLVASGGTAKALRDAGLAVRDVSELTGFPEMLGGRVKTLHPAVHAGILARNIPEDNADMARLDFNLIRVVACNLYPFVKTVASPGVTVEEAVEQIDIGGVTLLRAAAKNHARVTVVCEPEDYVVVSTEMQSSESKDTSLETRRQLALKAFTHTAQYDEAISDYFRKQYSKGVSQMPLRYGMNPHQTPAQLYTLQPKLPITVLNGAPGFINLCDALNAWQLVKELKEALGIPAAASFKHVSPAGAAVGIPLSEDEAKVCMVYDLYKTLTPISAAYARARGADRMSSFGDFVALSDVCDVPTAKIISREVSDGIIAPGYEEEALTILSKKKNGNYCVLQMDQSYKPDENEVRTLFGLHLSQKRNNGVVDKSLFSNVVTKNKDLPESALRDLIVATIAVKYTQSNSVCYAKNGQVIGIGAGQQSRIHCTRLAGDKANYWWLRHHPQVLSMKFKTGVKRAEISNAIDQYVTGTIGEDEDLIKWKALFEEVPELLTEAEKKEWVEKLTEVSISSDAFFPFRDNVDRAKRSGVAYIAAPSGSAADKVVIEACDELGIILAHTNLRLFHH

[8] = molecular target: T3, Thymidylate synthase/AICAR transformylase (Homo sapiens) (UniProt P04818+P31939); test: Inhibition of TS/AICARFTase in human KB cells assessed as reduction in cell proliferation up to 1 uM after 72 hrs in presence of excess of thymidine and AICA by MTT assay; format: cell-based
[9] = molecular target: T2, Bifunctional purine biosynthesis protein ATIC; test: Inhibition of recombinant human AICARFTase using AICAR as substrate incubated at 37 degC for 30 mins measured after overnight incubation at 4 degC
Target sequence in this assay (P31939 whole entry): as the sequence (P31939 whole entry, looked up) above

[10] = system: KB; test: Cell cycle arrest in human KB cells assessed as accumulation at S phase at 5 uM after 96 hrs by propidium iodide staining based flow cytometry (reference value: 35.66%); format: functional
[11] = system: KB; test: Cell cycle arrest in human KB cells assessed as accumulation at G2 phase at 5 uM after 96 hrs by propidium iodide staining based flow cytometry (reference value: 9.59%); format: functional
[12] = system: KB; test: Cell cycle arrest in human KB cells assessed as accumulation at G1 phase at 5 uM after 96 hrs by propidium iodide staining based flow cytometry (reference value: 54.75%); format: functional
[13] = system: KB; test: Cell cycle arrest in human KB cells assessed as accumulation at S phase at 10 uM after 96 hrs by propidium iodide staining based flow cytometry (reference value: 35.66%); format: functional
[14] = system: KB; test: Cell cycle arrest in human KB cells assessed as accumulation at G2 phase at 10 uM after 96 hrs by propidium iodide staining based flow cytometry (reference value: 9.59%); format: functional
[15] = system: KB; test: Cell cycle arrest in human KB cells assessed as accumulation at G1 phase at 10 uM after 96 hrs by propidium iodide staining based flow cytometry (reference value: 54.75%); format: functional
[16] = system: KB; test: Induction of apoptosis in human KB cells assessed as live cells at 10 uM after 48 hrs by Annexin V-FITC/propidium iodide staining based flow cytometry (reference value: 74.6%); format: functional
[17] = system: KB; test: Induction of apoptosis in human KB cells assessed as early apoptotic cells at 10 uM after 48 hrs by Annexin V-FITC/propidium iodide staining based flow cytometry (reference value: 16.9%); format: functional
[18] = system: KB; test: Induction of apoptosis in human KB cells assessed as late apoptotic cells at 10 uM after 48 hrs by Annexin V-FITC/propidium iodide staining based flow cytometry (reference value: 5.5%); format: functional
[19] = system: KB; test: Induction of apoptosis in human KB cells assessed as necrotic cells at 10 uM after 48 hrs by Annexin V-FITC/propidium iodide staining based flow cytometry (reference value: 3%); format: functional
[20] = system: KB; test: Potency index, ratio of methotrexate IC50 to compound IC50 for human KB cells; format: functional
[21] = system: KB; test: Potency index, ratio of pemetrexed IC50 to compound IC50 for human KB cells; format: functional
[22] = system: KB; test: Inhibition of colony formation in human KB cells at 100 nM after 10 to 14 days by methylene blue staining based assay relative to control; format: functional
[23] = system: KB; test: Cell cycle arrest in human KB cells assessed as accumulation at S phase at 1 uM after 96 hrs by propidium iodide staining based flow cytometry (reference value: 35.66%); format: functional
[24] = system: KB; test: Cell cycle arrest in human KB cells assessed as accumulation at G2 phase at 1 uM after 96 hrs by propidium iodide staining based flow cytometry (reference value: 9.59%); format: functional
[25] = system: KB; test: Cell cycle arrest in human KB cells assessed as accumulation at G1 phase at 1 uM after 96 hrs by propidium iodide staining based flow cytometry (reference value: 54.75%); format: functional
[26] = system: KB; test: Induction of apoptosis in human KB cells assessed as live cells at 1 uM after 48 hrs by Annexin V-FITC/propidium iodide staining based flow cytometry (reference value: 74.6%); format: functional
[27] = system: KB; test: Induction of apoptosis in human KB cells assessed as early apoptotic cells at 1 uM after 48 hrs by Annexin V-FITC/propidium iodide staining based flow cytometry (reference value: 16.9%); format: functional
[28] = system: KB; test: Induction of apoptosis in human KB cells assessed as late apoptotic cells at 1 uM after 48 hrs by Annexin V-FITC/propidium iodide staining based flow cytometry (reference value: 5.5%); format: functional
[29] = system: KB; test: Induction of apoptosis in human KB cells assessed as necrotic cells at 1 uM after 48 hrs by Annexin V-FITC/propidium iodide staining based flow cytometry (reference value: 3%); format: functional
[30] = molecular target: T2, Bifunctional purine biosynthesis protein ATIC; test: Inhibition of AICARFTase in human KB cells assessed as reduction in cell proliferation at 1 to 10 nM after 72 hrs in presence of excess of AICA by MTT assay; format: cell-based
Target sequence in this assay (P31939 whole entry, looked up): as above

[31] = molecular target: T3, Thymidylate synthase/AICAR transformylase (Homo sapiens); test: Inhibition of TS/AICARFTase in human KB cells assessed as reduction in cell proliferation at 1 to 10 nM after 72 hrs in presence of excess of thymidine and AICA by MTT assay; format: cell-based

T3 sequence (P04818 whole entry, looked up): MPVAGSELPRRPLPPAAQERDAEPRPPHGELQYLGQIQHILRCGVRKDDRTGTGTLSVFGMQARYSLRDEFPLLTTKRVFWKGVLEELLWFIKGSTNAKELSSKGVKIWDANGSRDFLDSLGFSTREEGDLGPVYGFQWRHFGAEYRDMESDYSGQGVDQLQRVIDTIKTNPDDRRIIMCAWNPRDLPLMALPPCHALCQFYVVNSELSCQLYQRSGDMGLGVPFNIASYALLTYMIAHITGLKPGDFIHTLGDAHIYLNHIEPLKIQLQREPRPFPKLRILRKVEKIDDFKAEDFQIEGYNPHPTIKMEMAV
T3 sequence (P31939 whole entry, looked up): as the sequence (P31939 whole entry, looked up) above
Sequence of Thymidylate synthase (Homo sapiens) (P04818 2-313 limits assumed): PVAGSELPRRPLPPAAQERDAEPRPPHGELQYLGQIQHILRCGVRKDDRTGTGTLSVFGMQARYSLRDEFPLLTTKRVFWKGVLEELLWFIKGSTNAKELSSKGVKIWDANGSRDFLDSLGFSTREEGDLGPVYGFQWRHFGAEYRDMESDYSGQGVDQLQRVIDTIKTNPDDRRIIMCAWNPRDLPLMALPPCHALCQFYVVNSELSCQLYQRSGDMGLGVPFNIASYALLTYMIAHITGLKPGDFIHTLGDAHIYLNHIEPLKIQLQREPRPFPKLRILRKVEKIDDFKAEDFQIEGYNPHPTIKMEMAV
Sequence of GAR transformylase/AICAR transformylase (Homo sapiens) (P22102 whole entry, looked up): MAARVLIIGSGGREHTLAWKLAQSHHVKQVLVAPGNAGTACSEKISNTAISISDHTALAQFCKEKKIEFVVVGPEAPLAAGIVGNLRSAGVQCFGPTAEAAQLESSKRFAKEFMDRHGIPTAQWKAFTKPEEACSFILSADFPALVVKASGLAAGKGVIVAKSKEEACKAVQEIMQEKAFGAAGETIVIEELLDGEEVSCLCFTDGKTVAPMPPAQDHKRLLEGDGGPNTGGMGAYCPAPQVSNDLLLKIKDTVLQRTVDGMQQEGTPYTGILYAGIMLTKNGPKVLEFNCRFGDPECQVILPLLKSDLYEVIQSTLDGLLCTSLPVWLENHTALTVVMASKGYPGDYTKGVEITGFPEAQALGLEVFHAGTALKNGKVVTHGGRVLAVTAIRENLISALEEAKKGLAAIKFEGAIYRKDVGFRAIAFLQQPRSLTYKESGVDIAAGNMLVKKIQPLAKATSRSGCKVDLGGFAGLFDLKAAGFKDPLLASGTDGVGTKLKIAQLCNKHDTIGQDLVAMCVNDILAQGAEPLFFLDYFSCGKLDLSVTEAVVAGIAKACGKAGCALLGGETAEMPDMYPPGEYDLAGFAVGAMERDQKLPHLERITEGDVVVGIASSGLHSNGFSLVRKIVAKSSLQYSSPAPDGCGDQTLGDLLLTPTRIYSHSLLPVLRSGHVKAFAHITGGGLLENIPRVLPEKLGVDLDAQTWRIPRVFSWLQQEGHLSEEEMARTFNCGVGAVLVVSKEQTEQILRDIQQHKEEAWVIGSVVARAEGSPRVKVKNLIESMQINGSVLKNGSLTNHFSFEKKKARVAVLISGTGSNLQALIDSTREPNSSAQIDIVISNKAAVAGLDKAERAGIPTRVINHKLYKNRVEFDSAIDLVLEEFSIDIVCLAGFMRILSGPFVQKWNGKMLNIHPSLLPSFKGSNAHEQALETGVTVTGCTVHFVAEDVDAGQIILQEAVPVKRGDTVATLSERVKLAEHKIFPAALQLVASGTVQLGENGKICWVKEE
Sequence of GAR transformylase/AICAR transformylase (Homo sapiens) (P31939 whole entry, looked up): as the sequence (P31939 whole entry, looked up) above
T1 sequence (P04818 whole entry, looked up): as the sequence (P04818 whole entry, looked up) above
T1 sequence (P22102 whole entry, looked up): as the sequence (P22102 whole entry, looked up) above
T1 sequence (P31939 whole entry, looked up): as the sequence (P31939 whole entry, looked up) above

## Nc1nc2[nH]c(CC(=O)NCCCCCC(=O)N[C@@H](CCC(=O)O)C(=O)O)cc2c(=O)[nH]1
[1]
  IC50: 1.4 ×10⁻⁴ microM
[2]
  IC50: 563 nM
[3]
  IC50: 1080 nM
[4]
  inhibition: inactive
[5]
  inhibition: inactive
[6]
  inhibition: inactive
[7]
  inhibition: Active
[8]
  inhibition: Active

## Nc1nc2ccc(S(=O)(=O)Nc3ccc(C(=O)N[C@@H](CCC(=O)O)C(=O)O)cc3)cc2c(=O)[nH]1
[9]
  Ki: 8 nM

## CN(Cc1cnc2nc(N)nc(N)c2n1)c1ccc(C(=O)N[C@@H](CCC(=O)O)C(=O)O)cc1 [METHOTREXATE]
[2]
  IC50: 22 nM
[3]
  IC50: 97 nM

## COc1cc([C@@H]2c3cc4c(cc3[C@@H](O[C@@H]3O[C@@H]5CO[C@@H](C)O[C@H]5[C@H](O)[C@H]3O)[C@H]3COC(=O)[C@H]23)OCO4)cc(OC)c1O [ETOPOSIDE]
[10]
  Activity: 0%
[11]
  Activity: 3.19%
[12]
  Activity: 96.81%

## Nc1nc2[nH]cc(CCc3ccc(C(=O)N[C@@H](CCC(=O)O)C(=O)O)cc3)c2c(=O)[nH]1 [PEMETREXED]
[2]
  IC50: 90 nM
[3]
  IC50: 650 nM
[13]
  Activity: 38.05%
[14]
  Activity: 0%
[15]
  Activity: 61.95%
[16]
  Activity: 10.2%
[17]
  Activity: 67%
[18]
  Activity: 21.8%
[19]
  Activity: 1%

## Nc1nc2[nH]c(CC(=O)NCC(=O)N[C@@H](CCC(=O)O)C(=O)O)cc2c(=O)[nH]1
[1]
  IC50: 7.8 ×10⁻⁵ uM
[2]
  IC50: 786 nM
[3]
  IC50: 913 nM
[20]
  Ratio IC50: 140
[21]
  Ratio IC50: 1000
[22]
  inhibition at 0.1 µM: > 90%
[4]
  inhibition: inactive
[5]
  inhibition: inactive
[6]
  inhibition: inactive
[7]
  inhibition: Active
[8]
  inhibition: Active
[23]
  Activity: 44.96%
[24]
  Activity: 2.43%
[25]
  Activity: 52.6%
[26]
  Activity: 57.9%
[27]
  Activity: 35.4%
[28]
  Activity: 6.4%
[29]
  Activity: 0.3%

## Nc1nc2[nH]c(CC(=O)Nc3ccc(C(=O)N[C@@H](CCC(=O)O)C(=O)O)cc3)cc2c(=O)[nH]1
[1]
  IC50: 7.5 ×10⁻³ microM
[2]
  IC50: 977 nM
[3]
  IC50: 1130 nM
[22]
  inhibition at 0.1 µM: > 80%
[30]
  inhibition: Active
[31]
  inhibition: Active
[23]
  Activity: 68.62%
[24]
  Activity: 0%
[25]
  Activity: 31.38%
[26]
  Activity: 55.4%
[27]
  Activity: 36.2%
[28]
  Activity: 7.1%
[29]
  Activity: 1.3%

## Nc1nc2[nH]c(CC(=O)NCCC(=O)N[C@@H](CCC(=O)O)C(=O)O)cc2c(=O)[nH]1
[1]
  IC50: 0.092 µM
[2]
  IC50: 1100 nM
[3]
  IC50: 2380 nM

## Nc1nc2[nH]c(CC(=O)NCCCCC(=O)N[C@@H](CCC(=O)O)C(=O)O)cc2c(=O)[nH]1
[1]
  IC50: 0.043 µM
[2]
  IC50: 1140 nM
[3]
  IC50: 3810 nM

## Nc1nc2[nH]c(CC(=O)NCCCC(=O)N[C@@H](CCC(=O)O)C(=O)O)cc2c(=O)[nH]1
[1]
  IC50: 0.107 µM
[2]
  IC50: 948 nM
[3]
  IC50: 3640 nM
